Laboratory results published in ChEMBL document CHEMBL1201862, “PubChem BioAssay data set” (2004).
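Growth conditions: 96-well plates. Treatment: test compound, 48 hours, 5 concentrations. Analysis: linear interpolation between bracketing concentrations; unreached endpoints set to highest concentration. GI50 is the concentration that inhibits growth by half.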 Activity calls are given as the source filed them. No stated cut-off is given here; in the data, active = GI50 up to about 1.1 µM and inactive = higher.

Key:
Experiment in all cases: inhibition of tumour cell growth, NCI panel, 48 h
[1] = tested on: TK-10
[2] = tested on: CCRF-CEM
[3] = tested on: SK-MEL-2
[4] = tested on: A549
[5] = tested on: SN12C
[6] = tested on: OVCAR-8
[7] = tested on: SF-539
[8] = tested on: Malme-3M
[9] = tested on: HCC 2998
[10] = tested on: UACC-257
[11] = tested on: LOX IMVI
[12] = tested on: EKVX
[13] = tested on: HL-60
[14] = tested on: HOP-92
[15] = tested on: NCI-H522
[16] = tested on: OVCAR-3
[17] = tested on: SR
[18] = tested on: SF-268
[19] = tested on: A498

Measured: GI50

CCOC(=O)C1Cc2c(ccc(OC)c2OC)C(=O)C1N (stereo not given)
inactive: [1] > 100 µM | [2] > 100 µM | [3] > 100 µM | [4] > 100 µM | [5] > 100 µM | [6] > 100 µM | [7] > 100 µM | [8] > 100 µM | [9] > 100 µM | [10] > 100 µM | [11] > 100 µM | [12] 21.5 µM | [13] > 100 µM | [14] > 100 µM | [15] > 100 µM | [16] 93.1 µM | [17] 41.2 µM

CC(=O)CN(Cc1cc(C)c2c(c1)c1ccccc1n2Cc1ccccc1)S(=O)(=O)c1ccc(C)cc1
inactive: [1] > 100 µM | [2] > 100 µM | [3] > 100 µM | [4] > 100 µM | [18] > 100 µM | [6] > 100 µM | [7] > 100 µM | [8] > 100 µM | [9] > 100 µM | [10] > 100 µM | [12] > 100 µM | [13] > 100 µM | [14] > 100 µM | [15] > 100 µM | [16] > 100 µM | [17] > 100 µM

Cc1ccc(-n2c(C)nc3c2C(=O)c2ccccc2C3=O)cc1
inactive: [1] > 100 µM | [2] 11.1 µM | [3] 40.7 µM | [4] 28.9 µM | [5] 28.4 µM | [18] 7.41 µM | [6] 17.4 µM | [7] 10.4 µM | [8] 20.4 µM | [9] 57.5 µM | [10] 19.1 µM | [11] 7.98 µM | [12] > 100 µM | [13] 9.14 µM | [14] 49.4 µM | [15] 34.7 µM | [16] 21.8 µM | [17] > 100 µM

COC(=O)C1=C(OC(=O)/C(=C/c2ccccc2)c2ccccc2)C(C(=O)OC)[C@@]2(O)[C@@H](C(=O)OC)[C@H](C)C[C@@H]1[C@@H]2C(=O)OC (stereo not given in full)
inactive: [1] > 100 µM | [2] > 100 µM | [3] > 100 µM | [4] > 100 µM | [5] > 100 µM | [18] > 100 µM | [6] > 100 µM | [7] > 100 µM | [8] > 100 µM | [9] > 100 µM | [10] > 100 µM | [19] > 100 µM | [11] > 100 µM | [12] > 100 µM | [13] > 100 µM | [15] 45.4 µM | [16] > 100 µM | [17] > 100 µM

CC(=O)NC(CCCCNC(=O)N(CCCl)N=O)C(=O)NCc1ccccc1 (stereo not given)
inactive: [2] > 100 µM | [3] > 100 µM | [4] > 100 µM | [5] > 100 µM | [18] 17.9 µM | [6] > 100 µM | [7] 29 µM | [8] > 100 µM | [9] > 100 µM | [10] > 100 µM | [12] > 100 µM | [13] > 100 µM | [14] > 100 µM | [15] > 100 µM | [16] > 100 µM | [17] 91.6 µM

O=C(CSCC(=O)N/N=C\c1cc(Br)cc(Br)c1O)N/N=C\c1cc(Br)cc(Br)c1O
inactive: [1] 15.6 µM | [3] 9.55 µM | [4] 76.6 µM | [5] 27.8 µM | [18] 11.3 µM | [6] 18.9 µM | [7] 20 µM | [8] 14.4 µM | [10] 23.5 µM | [11] 6.68 µM | [12] 37.1 µM | [14] 19.5 µM | [15] 11.7 µM | [16] 17.6 µM | [17] 15 µM
